Target: T1, SmPAL (Streptomyces maritimus, UniProt Q9KHJ9)
T1 construct: gene encP; native gene amplified from pHB-104, expressed from pHCMS-SmPAL (PH36 promoter) in Corynebacterium glutamicum ATCC 13032; 56 kDa; no tag mentioned; whole cells, not purified
T1 sequence (Q9KHJ9 1-523): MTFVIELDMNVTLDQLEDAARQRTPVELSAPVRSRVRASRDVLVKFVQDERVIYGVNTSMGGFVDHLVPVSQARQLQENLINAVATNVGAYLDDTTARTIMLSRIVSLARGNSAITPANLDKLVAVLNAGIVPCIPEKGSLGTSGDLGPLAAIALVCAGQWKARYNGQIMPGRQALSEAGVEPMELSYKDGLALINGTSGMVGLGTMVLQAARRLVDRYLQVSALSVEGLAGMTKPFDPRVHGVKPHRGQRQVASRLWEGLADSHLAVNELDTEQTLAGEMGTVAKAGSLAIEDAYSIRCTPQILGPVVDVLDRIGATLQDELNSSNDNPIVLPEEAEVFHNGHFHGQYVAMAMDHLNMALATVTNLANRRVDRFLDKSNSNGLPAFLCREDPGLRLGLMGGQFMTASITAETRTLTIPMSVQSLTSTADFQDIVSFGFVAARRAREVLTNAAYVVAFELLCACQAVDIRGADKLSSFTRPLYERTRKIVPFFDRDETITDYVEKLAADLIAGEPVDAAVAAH
Test: whole-cell bioconversion, HPLC of L-Phe and t-CA
Assay type: cell-based
Settings: C. glutamicum harboring pHCMS-SmPAL; 18.2 mM L-Phe; 100 mM Tris-HCl pH 7.5; 30 °C; product trans-cinnamic acid

## N[C@@H](Cc1ccccc1)C(=O)O [L-phenylalanine]
  whole-cell bioconversion, HPLC of L-Phe and t-CA: the bioconversion of L-Phe to t-CA was immediately observed

From paper PMC8310591, “Production of trans-cinnamic acid by whole-cell bioconversion from L-phenylalanine in engineered Corynebacterium glutamicum” (Microbial Cell Factories, 2021)
